Literature values as cited in patent publication US4866035A, “Dipeptidyl saccharides as host resistance enhancers in AIDS-immuno-compromised hosts and methods of use” (Merck & Co., Inc., priority 1987, dated 1989).
Where two headings read alike, the source gives them in different places.

How the values were obtained:
AIDS or ARC patients = conditions: ARC or AIDS-related conditions
[1] = in vivo
[2] = target: HIV reverse transcriptase (Human immunodeficiency virus type 1 group M subtype B, UniProt P04585)
[3] = test system: human immunodeficiency virus (HIV)
reverse transcriptase = conditions: in vitro
[4] = clinical trials or use in patients

Row | Compound | clinical effect in patients (AIDS or ARC patients) | adverse effects, tolerability (patients; human, in vivo) | also measured
1 | CO[C@H]1/C=C/O[C@@]2(C)Oc3c(C)c(O)c4c(c3C2=O)C2=NC3(CCN(CC(C)C)CC3)NC2=C(NC(=O)/C(C)=C\C=C\[C@H](C)[C@H](O)[C@@H](C)[C@@H](O)[C@@H](C)[C@H](OC(C)=O)[C@@H]1C)C4=O [Ansamycin] | some efficacy |  | 
2 | Cc1cn([C@H]2C[C@H](N=[N+]=[N-])[C@@H](CO)O2)c(=O)[nH]c1=O [Azidothymidine, 3'-azido 3'-deoxythymidine] | promise in prolonging lives |  | half life in the body [1]: relatively short half life; penetration of central nervous system [1]: effectively penetrates central nervous system; oral absorption ([1]; po): Well absorbed orally
3 | CC(C)(N1CC1C#N)N1CC1C(N)=O (stereo not drawn) [Azimexon] | improvements in symptoms and immune function in patients with ARC but not AIDS |  | adverse effects, tolerability (patients; [4]): mild hemolysis
4 | CC(C)(S)[C@@H](N)C(=O)O [D-Penicillamine, 3-mercapto D-valine] | suppressed the virus | temporarily depressed T cell levels | 
5 | O=C(O)P(=O)(O)O [Foscarnet, trioodium phosphonoformate] |  | serious side effects | inhibition of HIV reverse transcriptase [2]: Inhibits HIV reverse transcriptase activity in vitro
6 | CC(=O)Nc1ccc(C(=O)O)cc1.CC(=O)Nc1ccc(C(=O)O)cc1.CC(=O)Nc1ccc(C(=O)O)cc1.CC(O)CN(C)C.CC(O)CN(C)C.CC(O)CN(C)C.O=c1[nH]cnc2c1ncn2[C@@H]1O[C@H](CO)[C@@H](O)[C@H]1O [Inosine pranobex] | improve immune function in ARC patients |  | 
7 | NC(=O)c1ncn([C@@H]2O[C@H](CO)[C@@H](O)[C@H]2O)n1 [Ribavirin, 1-β-D-ribofuranosyl-1,2,4-triazole 3-carboxamide] | inhibited viral replication and improved immune function |  | adverse effects, tolerability (patients; [4]): well tolerated
8 | Cc1ccc(C(=O)Nc2ccc(S(=O)(=O)O)c3cc(S(=O)(=O)O)cc(S(=O)(=O)O)c23)cc1NC(=O)c1cccc(NC(=O)Nc2cccc(C(=O)Nc3cc(C(=O)Nc4ccc(S(=O)(=O)O)c5cc(S(=O)(=O)O)cc(S(=O)(=O)O)c45)ccc3C)c2)c1 [Suramin] |  | serious side effects | inhibition of HIV reverse transcriptase [2]: Potent inhibitor of HIV reverse transcriptase
9 | ammonium-21-tungsto-9-antimoniate [HPA-23] | no therapeutic benefit has been documented |  | effect on HIV growth or infectivity [3]: some tendency to check the growth of HIV; inhibition of reverse transcriptase in several retroviruses (reverse transcriptase): Inhibits reverse transcriptase
10 | α-Interferon | induced tumor regression in some AIDS-related Kaposi's sarcoma cases |  | effect on HIV growth or infectivity [3]: Checks the growth of HIV in vitro
